Test results from US11933781B2, “Fibrosis model and methods of use thereof” (The Regents of the University of Colorado, priority 2020, dated 2024).

Assays:
Type in all cases: cell-based, human
IPF HBECs [1] = experiment: Induction of the unjammed-to-jammed transition (UJT) in IPF HBECs; conditions: day 14 IPF HBECs
Excerpt: (§1) Epithelial Cell Culture: Primary human bronchial epithelial cells (HBECs) were obtained from two sources (1) provided by Dr. Hong Wei Chu at National Jewish Health, or (2) lung transplant collection at the University of Colorado Hospital (IRB protocol: 11-1664 or 18-0572). Epithelial cells from bronchial brushes or CT-guided dissection were expanded to passage 2 before being cultured at air liquid interface (ALI). Control (N=11), IPF (N=6), and COPD (N=3) were age matched and controls had no history of chronic lung disease (Table 1). Cells were seeded on 24-Transwell plates (Corning, Corning, New York, 3470) coated with type I collagen (Corning, Corning, New York, 354236) and maintained under submerged conditions for five to seven days until the cells reached confluence. Culture media was a 1:1 mixture of DMEM and BEBM (Lonza, Basel, Switzerland, CC170) supplemented with retinoic acid (Sigma-Aldrich, Germany, R-2625) nystatin (Sigma-Aldrich, Germany N1638), and bovine serum albumin (FisherSci, Thermo Fisher Scientific, Waltham, Massachusetts BP9703100). Once confluent, apical media was removed and maintained at ALI. HBECs began recapitulating the in vivo airway, with production of mucus (6-9 days after establishing ALI) and development of a pseudostratified epithelium. Cells were switched to a starvation media (lacking supplemental epidermal growth factor, hydrocortisone, and bovine pituitary extract) 24 hours prior to experimentation.
(§2) For inhibitor, activator, and ligand treatments HBECs were cultured in a starvation media in the absence of EGF, hydrocortisone, and bovine pituitary extract for 24 hours prior to treatment initiation. Cells were then treated for 2-4 hours (with exception of AREG neutralizing antibody which was maintained in the culture media), media was aspirated, the wells were washed with warm PBS and then replaced with fresh starvation media without inhibitor/activator/ligand present, and subsequently imaged. For experiments that required subsequent media changes (96 hour) cells fresh starvation media was changed 48 hours afterwards.
(§3) Live Cell Imaging and Dynamics Measurement: To assess cellular dynamics, time-lapse microscopy and subsequent analysis were completed. Two imaging schemes were utilized: (1) images were taken every 5 minutes for 200 minutes during HBEC differentiation; (2) images were taken every 20 minutes for 48, 96, or 144 hours after HBEC experimental intervention. Phase contrast images were acquired on a Keyence BZ-X810 with a stage incubator (37° C., 5% CO2). Dynamic analysis followed previously published workflows (10-12, 22). Briefly, using phase contrast images instantaneous velocities were mapped by particle image velocimetry utilizing open source PIVLab on MATLAB. Velocity fields were obtained with 2 passes (64×64 and 32×32 pixel size interrogation window with 50% overlap) with a pixel size of 0.75488 μm using a Fast Fourier Transformation method. Trajectories from the PIV were seeded onto a grid and obtained via forward-integration of subsequent fields. These values were then used to determine mean-squared-displacement (MSD) and self-overlap order parameter (Q): MSD(Δt)= ? ri(t+Δt)−ri(t)|2 ? and Q(Δt)=N−1ΣwiNi=1 as previously published. Instantaneous room mean squared velocity (VRMS) of the monolayer was obtained as previously published: VRMS(t)=√1MΣ ? |v(t)2 ? jMj=1
(§4) Cell Shape Analysis: Cell shape measurements were achieved via cell border delineation by F-actin immunofluorescence. Images were segmented utilizing SeedWater Segmenter. Similar to previously published workflows, we segmented images which were subsequently analyzed in ImageJ for the shape index (q=Perimeter√Area) and aspect ratio (major and minor axis) for all cells within a given field of view. For each experimental condition an n≥3 was used with at least 3 independent wells per donor per treatment condition. […]

IPF HBECs [2] = experiment: Gene expression of ERBB receptors, YAP target genes and MUC5B in IPF HBECs; conditions: IPF HBECs after inhibition
Description: Quantitative RT-PCR Analysis: Total RNA was extracted using RNeasy® Mini kit (Qiagen, Hilden, Germany) and quantified by NanoDrop™ (ThermoFisher Scientific™, Waltham, Massachusetts).Reverse transcription was completed using the High Capacity cDNA Reverse Transcription Kit (Applied Biosystems™, Thermo Fisher Scientific™, Waltham, Massachusetts). Gene expression was analyzed by using TaqMan® Advanced Master Mix (Thermo Fisher Scientific™, Waltham, Massachusetts and TaqMan® assays. They were subsequently run in triplicate on the ViiA™ 7 Real-Time machine (Thermo Fisher Scientific™, Waltham, Massachusetts). Primer IDs were: β-ACTIN, Hs01060665_g1; MUC5B, Hs00861595_m1; MUC5AC, Hs01365616_m1; EGFR, Hs0176090_m1; ERBB2, Hs01001580_m1; ZEB1, Hs00232783_m1; SNAI1, Hs00195591_m1; VIM, Hs00185584_m1; CTGF, Hs00170014_m1; AREG, Hs00950669_m1; FN1, Hs01549976_m1; PDGFRA, Hs00998018_m1; PDGFA, Hs00234994_m1; PDGFRB, Hs01019589_m1; PDGFB, Hs00966522_m1; TGFBRI, Hs00610320_m1; TGFBI, Hs00998133_m1; COL1A1, Hs00164004_m1; ACTA2, Hs00426835; MMP3, Hs00968305_m1; MMP9, Hs00957562_m1; TIMP1, Hs01092512_g1; and TIMP2, Hs00234278_m1.

IPF HBECs [3] = experiment: YAP immunofluorescence in IPF HBECs; conditions: IPF HBECs 48 hours after treatment
Description: (§5) Immunofluorescence staining: Cells were fixed with 4% paraformaldehyde in PBS with calcium and magnesium for 30 minutes at room temperature. Cells were then washed with PBS and subsequently permeabilized (Triton™-X, at 0.1%) and blocked with 5% bovine serum albumin in PBS for 1 hour at room temperature. Cells were then incubated for >16 hours at 4 degrees with primary antibodies. Primary antibodies were aspirated, and cells were washed with PBS+0.1% Tween-20 at room temperature. Cells were then incubated for 1 hour at room temperature with secondary antibodies (1:500) and/or Phalloidin-iFluor™ 488 1:2000. Cells were stained with 4′,6-diamidino-2-phenylindole at 1:20000 (BioLegend®, San Diego, California, 422801). Subsequently, transwell membranes, or hydrogels, were removed from the well and mounted on glass slides with Fluoromount-G® (SouthernBiotech™, Birmingham, Alabama, 0100-01). Slides were then visualized using an Olympus BX63 microscope (Olympus, Tokyo, Japan).
(§6) Immunofluorescence and cell number quantification for HBEC experiments: For total fluorescence quantification (i.e., ERBB2), all images were processed in the same manner with the same microscopy settings. To determine mean fluorescence the channel of interest was separated in ImageJ, and the mean gray value was measured for the field of view and normalized by the total number of cells. Cell counting was achieved by taking 40×images and manually counting all nuclei in a field of view (approximately 200-300). The number of cells also expressing the marker of interested were then counted and normalized by the total number of cells per field. For each experiment a biological n≥3 was used with at least 5 fields of view per well and at least 2 wells being counted in total per donor.

COPD HBECs = experiment: Induction of jamming in COPD HBECs
Excerpt: as §1
as §2, with “afterwards. […]” for “afterwards.”

control HBECs [4] = experiment: Induced unjamming of control HBECs at air-liquid interface (live cell imaging, cell shape); conditions: for ability to induce an unjammed state in control epithelia: control HBECs at ALI day 14; for induction of unjammed state in mature monolayer: control HBECs treated at ALI day 28; for time at which migratory capacity of control epithelia begins to diminish: treatment at day 14 of ALI
Excerpt: as §1, §2, §3, §4

control HBECs [5] = experiment: Immunofluorescence of Ki67 and YAP in control HBECs; conditions: for cell type showing YAP nuclear localization: control HBECs after treatment; for YAP nuclear localization / proliferation (Ki67+): control HBECs, 48 hours after treatment
Description: as §5, §6

control HBECs [6] = experiment: Barrier function (TEER) of control HBECs
Description: Barrier function measurements: The transepithelial electrical resistance (TEER) was assessed utilizing the Millicell® ERS-2 Voltohmeter (MilliporeSigma™, Burlington, Massachusetts, MERS00002). Briefly, cells were incubated with PBS with calcium and magnesium (at 37 degrees for 20 minutes prior to barrier measurement). The probe was inserted, and the resultant ohm reading was recorded. The final value was calculated by:
This value was subtracted by 100 (the resistance of a blank well) and multiplied by 0.33 (the surface area of a single well in a 24 well plate). A minimum of 3 wells were recorded per donor per treatment condition. These values were subsequently averaged per treatment and graphed.

[7] = control HBECs by MUC5B promoter variant status

Molecule	induction of the UJT (jamming) in IPF epithelia (IPF HBECs [1])	transcription of ERBB receptors, YAP target genes and MUC5B (IPF HBECs [2])	YAP nuclear exclusion (IPF HBECs [3])	ability to induce an unjammed state in control epithelia (control HBECs [4])	other results
COc1cc2ncnc(Nc3cccc(Cl)c3)c2cc1OC [AG1478, Tyrphostin AG-1478]	halted migration and induced a cobblestone appearance in the epithelia	reduced the transcription of ERBB receptors, YAP target genes, and MUC5B nearly back to control levels	results in YAP nuclear exclusion		induction of jamming in COPD epithelia (COPD HBECs): not responsive to ERBB-YAP inhibition
C#Cc1cccc(Nc2ncnc3cc(OCCOC)c(OCCOC)cc23)c1 [Erlotinib]	induces jamming in IPF epithelia	decreases 738 ERBB-YAP target gene expression	results in YAP nuclear exclusion		
CNc1nc(-c2ccc3c(N)n[nH]c3c2)cc(N2C[C@@H](C(=O)NC3CCCCC3)CC[C@H]2C)n1 [GSK2334470]	induces jamming in IPF epithelia		results in YAP nuclear exclusion		
CS(=O)(=O)CCNCc1ccc(-c2ccc3ncnc(Nc4ccc(OCc5cccc(F)c5)c(Cl)c4)c3c2)o1 [Lapatinib]	induces jamming in IPF epithelia	decreases 738 ERBB-YAP target gene expression	results in YAP nuclear exclusion		
NC1(c2ccc(-c3nc4ccn5c(=O)[nH]nc5c4cc3-c3ccccc3)cc2)CCC1 [MK-2206]	did not induce the UJT				
FC(F)(F)c1ccc(/C=C/c2nc(COc3ccc(CCCCn4ccnn4)cc3)co2)cc1 [Mubritinib]	induces jamming in IPF epithelia	decreases 738 ERBB-YAP target gene expression	results in YAP nuclear exclusion		
NCC(=O)Nc1ccc(-n2nc(C(F)(F)F)cc2-c2ccc3c(ccc4ccccc43)c2)cc1 [OSU03012, OSU-03012]	induces jamming in IPF epithelia	decreases 738 ERBB-YAP target gene expression	results in YAP nuclear exclusion		induction of jamming in COPD epithelia (COPD HBECs): not responsive to ERBB-YAP inhibition
CN1CCN(c2nc(C3=C(c4c[nH]c5ccccc45)C(=O)NC3=O)c3ccccc3n2)CC1 [Sotrastaurin]	did not induce the UJT				
CN1C(=O)c2sccc2N(C)c2nc(Nc3ccc(S(N)(=O)=O)cc3)ncc21 [XMU-MP-1]				had the ability to elicit an unjammed state	induction of unjammed state in mature monolayer (control HBECs [4]): unjammed state was induced regardless of monolayer maturity; time at which migratory capacity of control epithelia begins to diminish (control HBECs [4]): ~36 h; cell type showing YAP nuclear localization (control HBECs [5]): predominantly in multi-ciliated cells (FOXJ1+); YAP nuclear localization (control HBECs [5]): did lead to YAP nuclear localization; proliferation (Ki67+) (control HBECs [5]): neither AREG nor XMU treatment resulted in increased proliferation
AREG: Recombinant amphiregulin, low affinity EGFR ligand (R&D Systems 262-AR)				only AREG treatment had the ability to induce an unjammed state	persistence in the unjammed state, rs35705950 GT vs GG epithelia (control HBECs [4]; [7]): persisted in the unjammed state significantly longer than GG epithelia; root-mean-squared velocity, rs35705950 GT vs GG epithelia (control HBECs [4]; [7]): higher root-mean-squared velocity than their GG counterparts; induction of unjammed state in mature monolayer (control HBECs [4]): unjammed state was induced regardless of monolayer maturity; time at which migratory capacity of control epithelia begins to diminish (control HBECs [4]): ~36 h; barrier function in genotype-dependent unjamming (control HBECs [6]; control HBECs GG or GT): did not alter barrier function; barrier function (TEER) after treatment (control HBECs [6]; control HBECs at ALI day 14): without diminishing barrier function; cell type showing YAP nuclear localization (control HBECs [5]): predominantly in multi-ciliated cells (FOXJ1+); YAP nuclear localization (control HBECs [5]): did lead to YAP nuclear localization; proliferation (Ki67+) (control HBECs [5]): neither AREG nor XMU treatment resulted in increased proliferation
EGF: High-affinity EGFR ligand, EGFR agonist (R&D Systems 263-EG) (NSDSECPLSHDGYCLHDGVCMYIEALDKYACNCVVGYIGERCQYRDLKWWELR; Epidermal growth factor; UniProt P01133 971-1023, looked up)				only AREG treatment had the ability to induce an unjammed state	
TGFα: High-affinity EGFR ligand, EGFR agonist (R&D Systems 239-A-100)				only AREG treatment had the ability to induce an unjammed state	
